Test results reported in patent US5468730A, “Methods for the treatment of non-IgE-mediated diseases” (Dura Pharmaceuticals, Inc., priority 1992, dated 1995).
Values joined by “and” are separate entries in the source; they are usually repeats but may differ in a detail not shown here. Identical values can stand only once. No end group written: not given here.

What was measured:
[1] = tested on: carrageenan-induced inflammation; experiment: Carrageenan-induced footpad edema in mice; format: in vivo, female Balb/C mice
Method: In order to examine the ability of pentigetide to inhibit carrageenan-induced inflammation, female Balb/C mice were injected with 0.025 ml of 1.0% carrageenan solution (type 1x carrageenan: Sigma No. C-1013, Lot No. 86F-0698) or saline in the right hind footpad 5 minutes after intravenous tail vein injection of 0.2 ml pentigetide (1.0 mg/kg) or saline solution.

[2] = tested on: sheep erythrocyte (SRBC)-induced DTH reactions; experiment: Sheep erythrocyte (SRBC)-induced DTH footpad swelling in mice; format: in vivo, female Balb/C mice; conditions: indomethacin 1.0 mg/kg on day 4 (positive control); footpad volume about 24 h after challenge
[3] = tested on: Tetanus toxoid-induced DTH reactions; design: species or system female Balb/C mice; conditions: mouse, in vivo
[4] = tested on: immune complex-induced colitis; experiment: Immune complex-mediated ulcerative colitis model (formalin + IgG immune complexes) in mice; format: in vivo, male BKA mice (outbred Swiss albino)
Method: A mouse model of intestinal inflammation was employed wherein the efficacy of pentigetide in reducing inflammation induced by formalin and complement-fixing IgG immune complexes was measured. This model is particularly useful as a model of human ulcerative colitis and shares many clinical and histological functions of the human disease including sensitivity to glucocorticoids, sulfasalazine and 5-aminosalicylic acid (see L. P. Walsh, et al., British J. Pharm. 91:294 (1987); A. Blackham, et al., British J. Pharm. 89:694 (1986); L. D. Walsh and I. J. Zeitlin, British J. Pharm. 92:741 (1987)). The mouse model of intestinal inflammation used in these studies is induced by the exposure of the animals to chemicals which are known to trigger inflammatory processes in both animals and humans. […]
Colonic tissue water content was determined by tissue weight loss on drying of colonic tissues. […]
The response to immune complex alone was determined quantitatively by subtracting the mean value in group B from the mean value in group C. An estimate of the percentage reduction in this response produced by the drug was calculated as: [formula] […] Statistical significance was determined using the non-parametric Mann-Whitney U-test. […]

[5] = tested on: binding of IgE to lymphoblastoid tissue culture cells; conditions: two trials; reported in U.S. Pat. No. 4,161,522; cited from earlier work
[6] = tested on: chronic idiopathic urticaria (non-IgE-mediated); conditions: human, in vivo

Molecule: COc1ccc2c(c1)c(CC(=O)O)c(C)n2C(=O)c1ccc(Cl)cc1 [Indomethacin, indomethacin]
- Percent Inhibition ([1]; 1.0 hours after carrageenan injection, indomethacin 10 mg/kg s.c. 24 hours prior to carrageenan): -35%
- Percent Inhibition ([1]; 2.0 hours after carrageenan injection, indomethacin 10 mg/kg s.c.): -60%
- Percent Inhibition ([1]; 4.0 hours after carrageenan injection, indomethacin 10 mg/kg s.c.): -39%
- Percent Inhibition ([1]; 6.0 hours after carrageenan injection, indomethacin 10 mg/kg s.c.): -47%
- inhibition [2]: 43%
- inhibition [3]: 45%

Molecule: C[C@]12C=CC(=O)C=C1CC[C@@H]1[C@@H]2[C@@H](O)C[C@@]2(C)[C@H]1CC[C@]2(O)C(=O)CO [prednisolone]
- reduction of colonic edema ([4]; prednisolone 5.0 mg/kg i.p. for three days prior to inflammation induction and daily thereafter, p<0.01): 86.2%
- reduction of colonic edema (printed in the colitic sign score paragraph) ([4]; prednisolone 5.0 mg/kg i.p., p<0.001): 93.8%

Molecule: Asn-Ser-Asn-Pro-Arg (NSNPR; printed: Asn-Ser-Asn-Pro-Arg) [peptide reported in U.S. Pat. No. 4,161,522]
- activity: ability to block binding of IgE to lymphoblastoid tissue culture cells [5]: lower activity

Molecule: Asn-Ser-Asp-Pro-Arg (NSDPR; printed: Asn-Ser-Asp-Pro-Arg) [peptide reported in U.S. Pat. No. 4,161,522]
- activity: ability to block binding of IgE to lymphoblastoid tissue culture cells [5]: lower activity

Molecule: DSDPR [pentigetide, Asp-Ser-Asp-Pro-Arg]
- side effects from the treatment [6]: did not experience any side effects

Molecule: [-Cys-Ala-Asn-Ser-Asn-Pro-Arg]2
- activity: ability to block binding of IgE to lymphoblastoid tissue culture cells [5]: 9% and 12%
